These results are taken from patent US11612641B2, “Method for treating Huntingtons's disease” (UNIVERSITY OF IOWA RESEARCH FOUNDATION, priority 2014, dated 2023).

Entries after “also recorded” stand apart in the source; their conditions may differ.

Data set [1] addresses T1, mTORC1 (Mus musculus, UniProt P26883+Q9JLN9).
T1 construct: Biochemical assessment of mTORC1 activity (pS6) in striatal lysates from N171-82Q mice; from tissue; host or cells: striatum of N171-82Q transgenic mice (in vivo)
In words: mTORC1 activity (pS6) in striatum of N171-82Q mice given RAD001. The format is in vivo. The note with it: RAD001 for 2 weeks vs vehicle, striata harvested 24 hours after the last dose. The text has this:
(§1) All animal protocols were approved by the University of Iowa Animal Care and Use Committee. N171-82Q mice were obtained from Jackson Laboratories (Bar Harbor, Me.) and maintained on B6C3F1/J background. Mice were genotyped using primers specific for the mutant human HTT transgene, and hemizygous and age-matched wild-type littermates were used for the indicated experiments. Mice were housed in a controlled temperature environment on a 12-hour light/dark cycle. Food and water were provided ad libitum. For pharmacological studies, RAD001 was obtained from LC Laboratories, diluted to 2 mg/ml in 2% DMSO, and stored at −20° C. Freshly thawed vehicle and RAD001 (30 μmol/kg) were given 3 times per week (Monday, Wednesday, and Friday) for two weeks by gavage as described previously (Fox et al., 2010). […]
Floating, 40-μm coronal brain sections were processed for immunohistochemical staining of medium spiny neurons or mHTT aggregates using biotin-labeled antibody. […] S6 phosphorylation was detected with a phospho-S6 antibody (S235/236, 1:300, Cell Signaling). […] The areas of DARPP-32 positive MSN were quantified by Olympus DP2-BSW software (version 2.1). The average MSN areas of ipsilateral injected sides were compared to contralateral control sides and expressed as means+SEM. EM48 positive inclusions were counted by an experimenter blinded to treatment groups. […]

Data set [2] relates to medium spiny neurons (MSN). In words: DARPP-32 staining: MSN cell area and striatal volume in N171-82Q mice. The class given is in vivo, mouse.
Excerpt: as §1, with “C.” for “C. Freshly thawed vehicle and RAD001 (30 μmol/kg) were given 3 times per week (Monday, Wednesday, and Friday) for two weeks by gavage as described previously (Fox et al., 2010).”
Floating, 40-μm coronal brain sections were processed for immunohistochemical staining of medium spiny neurons or mHTT aggregates using biotin-labeled antibody. […] S6 phosphorylation was detected with a phospho-S6 antibody (S235/236, 1:300, Cell Signaling). […] The areas of DARPP-32 positive MSN were quantified by Olympus DP2-BSW software (version 2.1). The average MSN areas of ipsilateral injected sides were compared to contralateral control sides and expressed as means+SEM. EM48 positive inclusions were counted by an experimenter blinded to treatment groups.
Striatal volume was calculated using point counting methods with the Cavalieri estimator of volume (Michel and Cruz-Orive, 1988). […] A minimum of 200 points were counted over 5 sections. […]

Data set [3] deals with Q7 and Q111 striatal cells. In words: Western blot of Q7 and Q111 striatal cells treated with Torin1. The class given is cell-based. The note with it: 250 nM Torin1, 24 hours. The procedure:
(§2) Mutant (Q111) and WT (Q7) striatal cells (Trettel et al., 2000) with full-length HTT were kindly provided by Dr. Marcy MacDonald. The Q7 and Q111 cells were grown at 37° C. in Dulbecco's modified Eagle's medium (DMEM; Sigma Chemical Co, St. Louis, Mo.) supplemented with 10% fetal bovine serum, 1% non-essential amino acids, 2 mM L-glutamine, and 400 μg/ml G418 (Geneticin; Invitrogen, Carlsbad, Calif.).
Mouse striata were harvested and lysed in RIPA buffer containing 50 mM Tris (pH 8.0), 150 mM NaCl, 1% […] detergent, 0.1% SDS detergent, 0.5% deoxycholic acid, and 1 mM β-mercaptoethanol with protease inhibitors (Complete Mini, Roche Applied Science, Mannheim, Germany) and phosphatase inhibitors (PhosSTOP Phosphatase Inhibitor Cocktail, Roche Applied Science, Mannheim, Germany). Tissues were homogenized on ice and spun at 14,000 g for 20 min. Supernatant were used for analysis. Protein concentration was determined by BCA assay (Pierce, Rockford, Ill.) and 20-30 μg of protein was reduced and separated by SDS-PAGE on 4%-10% acrylamide gels and transferred to 0.2 μm Immobilon PVDF membranes (Millipore, Billerica, Mass.). The primary antibodies used were as follows: DARPP-32 (1:1000, Cell Signaling), β-actin (Sigma-Aldrich, 1:5000), S6 (1:1000, Cell Signaling), phospho-S6 (S235/236, 1:1000, Cell Signaling), 4EBP1 (1:1000, Cell Signaling), phospho-4E-BP1 (T37/46, 1:1000, Cell Signaling), mTOR (1:1000, Cell Signaling), Rictor (1:1000, Cell Signaling), Raptor (1:1000, Cell Signaling), CREB (1:1000, Cell Signaling), TORC1 (1:1000, Cell Signaling), PGC1-α (1:1000, abeam), LC3 (1:1000, Novus Biologicals), and Beclin1 (1:1000, Cell Signaling). Secondary antibodies used were HRP-goat anti-mouse IgG and HRP-goat anti-rabbit IgG (Cell Signaling). Blots were developed using ECL Plus Western Blotting Detection System (GE Healthcare, Pittsburgh, Pa.), and then exposed to film. Protein quantification was performed using NIH ImageJ software or the VersaDoc™ Imaging System (Biorad) and Quantity One R analysis software. Band densities were normalized to housekeeping (β-actin) bands from the same samples and lanes.
(A western blot detects proteins with antibodies after separation by electrophoresis.)

In data set [4] the test system is Q7 and Q111 striatal cells. Nature of the data set: RT-qPCR of HMGCR and HMGCS1 in Q7 and Q111 striatal cells treated with Torin1. The class given is cell-based. The note with it: 250 nM Torin1, 24 hours, both mutant and normal cell lines. The procedure: as §2
RNA was isolated from striatal punches using 1 ml of TRIzol. Random-primed first-strand complementary DNA (cDNA) synthesis was performed using 500 ng total RNA (High Capacity cDNA Reverse Transcription Kit; Applied Biosystems, Foster City, Calif.) per manufacturer's protocol. Real-time PCR was performed on a sequence detection system (Prism 7900HT, Applied Biosystems) using SYBR green PCR mix (Invitrogen) or TaqMan 2× Universal Master Mix (Applied Biosystems). The following Taqman primer/probe sets were obtained from Applied Biosystem: Rhes (Mm04209172_m1 and Hs04188091_mH), PGC1-α (Mm01208835_m1), and HMGCS1 (Mm01304569_m1), and HDAC4 (Mm01299557_m1). The primer sequences for SYBR green RT PCR are available upon request. Relative gene expression was determined using the AACT method, normalizing to β-actin.
In general terms: Quantitative PCR measures a nucleic acid by following its amplification.

Data set [5] concerns R6/2 HD mice. The note with it: R6/2 HD mice (Fox et al., 2010); cited from earlier work.

On to `CO[C@H]1C[C@@H]2CC[C@@H](C)[C@@](O)(O2)C(=O)C(=O)N2CCCC[C@H]2C(=O)O[C@H]([C@H](C)C[C@@H]2CC[C@@H](OCCO)[C@H](OC)C2)CC(=O)[C@H](C)/C=C(\C)[C@@H](O)[C@@H](OC)C(=O)[C@H](C)C[C@H](C)/C=C/C=C/C=C/1C` [RAD001], for which, in data set [1], the “mTORC1 activity (S6 phosphorylation, pS6)” value is “attenuated; also recorded: inhibits mTORC1 activity”. Besides, the MSN atrophy result in data set [2] (2 weeks of RAD001 treatment in the absence of caRheb, N171-82Q mice) is “mild but significant exacerbation”. Further, the “morphological effects of caRheb (MSN cell size, striatal volume)” value in data set [2] (RAD001 30 μmol/kg by gavage 3 times per week for two weeks in AAV.caRheb injected N171-82Q mice) is “reversed”.

Turning to `CCC(=O)N1CCN(c2ccc(-n3c(=O)ccc4cnc5ccc(-c6cnc7ccccc7c6)cc5c43)cc2C(F)(F)F)CC1` [Torin1], in data set [3], the CREB entry is recorded as “repressed”, the DARPP-32 expression result was “reduced”, the PGC1-α entry was “repressed” and the p-4E-BP1 levels result is reported as “reduced”. In addition, in data set [3], the pS6 levels entry is given as “reduced” and the “transducer of regulated CREB 1 (TORC1)” value was “repressed”. For the same compound, in data set [4], the HMGCR expression entry is given as “reduced expression” and the HMGCS1 expression entry was “reduced expression”.

Consider `CO[C@H]1C[C@@H]2CC[C@@H](C)[C@@](O)(O2)C(=O)C(=O)N2CCCC[C@H]2C(=O)O[C@H]([C@H](C)C[C@@H]2CC[C@@H](O)[C@H](OC)C2)CC(=O)[C@H](C)/C=C(\C)[C@@H](O)[C@@H](OC)C(=O)[C@H](C)C[C@H](C)/C=C/C=C/C=C/1C` [rapamycin], for which, in data set [5], the brain atrophy result is given as “enhanced brain atrophy” and the weight loss result is “accelerated weight loss”.
